According to US20240182461A1, “SELECTIVE ANGIOTENSIN II RECEPTOR LIGANDS” (priority 2021, published 2024):
Read-outs that look alike come from different tables or passages of the source.

Legend:
[1] = biological target: T1, human recombinant AT1 receptor (Homo sapiens, UniProt P30556); assay: Radioligand binding to AT1 receptor (Eurofins radiometric scintillation assay); conditions: 1 and 10 μM; ligand 125I(sar1,Ile8)-AT-II
T1 construct: Eurofins (protocol only) ITEM24
T1 sequence (P30556 1-359): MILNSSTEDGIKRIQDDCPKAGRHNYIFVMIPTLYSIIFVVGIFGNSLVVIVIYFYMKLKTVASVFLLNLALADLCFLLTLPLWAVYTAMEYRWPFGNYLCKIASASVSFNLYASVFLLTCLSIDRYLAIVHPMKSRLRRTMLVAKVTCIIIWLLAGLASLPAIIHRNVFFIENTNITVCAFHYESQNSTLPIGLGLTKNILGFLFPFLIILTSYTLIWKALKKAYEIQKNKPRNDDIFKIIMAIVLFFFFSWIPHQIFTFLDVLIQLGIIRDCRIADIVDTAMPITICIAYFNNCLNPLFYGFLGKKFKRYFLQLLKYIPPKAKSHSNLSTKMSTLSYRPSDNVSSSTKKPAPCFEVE

[2] = biological target: T2, human recombinant AT2 receptor (Homo sapiens, UniProt P50052); assay: Radioligand binding to AT2 receptor (Eurofins radiometric scintillation assay); conditions: ligand 125I CGP 42112A; for IC50: 1, 10, 100 and 1000 nM, read-out: AT2 GraFit IC50; for Ki: seven-point dose-response curve, read-out: AT2R Ki
T2 construct: Eurofins (protocol only) ITEM26
T2 sequence (P50052 1-363): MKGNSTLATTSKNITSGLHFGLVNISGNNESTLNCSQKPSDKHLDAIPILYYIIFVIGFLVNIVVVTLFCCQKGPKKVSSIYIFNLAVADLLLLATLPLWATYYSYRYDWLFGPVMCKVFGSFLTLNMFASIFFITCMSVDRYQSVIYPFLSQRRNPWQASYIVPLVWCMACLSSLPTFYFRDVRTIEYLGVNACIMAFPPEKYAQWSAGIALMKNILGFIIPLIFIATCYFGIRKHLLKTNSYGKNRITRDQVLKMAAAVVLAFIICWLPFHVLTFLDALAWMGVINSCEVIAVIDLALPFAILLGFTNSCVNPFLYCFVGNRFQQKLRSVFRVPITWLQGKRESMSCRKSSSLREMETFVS

[3] = biological target: T3, CYP1A (Homo sapiens, UniProt P05177); assay: CYP inhibition in human liver microsomes, CYP1A; assay type: in vitro ADME; conditions: probe phenacetin, substrate phenacetin, read-out: CYP1A Inh %
T3 construct: incubated with human liver microsomes; from tissue; host or cells: human liver microsomes
T3 sequence (P05177 whole entry): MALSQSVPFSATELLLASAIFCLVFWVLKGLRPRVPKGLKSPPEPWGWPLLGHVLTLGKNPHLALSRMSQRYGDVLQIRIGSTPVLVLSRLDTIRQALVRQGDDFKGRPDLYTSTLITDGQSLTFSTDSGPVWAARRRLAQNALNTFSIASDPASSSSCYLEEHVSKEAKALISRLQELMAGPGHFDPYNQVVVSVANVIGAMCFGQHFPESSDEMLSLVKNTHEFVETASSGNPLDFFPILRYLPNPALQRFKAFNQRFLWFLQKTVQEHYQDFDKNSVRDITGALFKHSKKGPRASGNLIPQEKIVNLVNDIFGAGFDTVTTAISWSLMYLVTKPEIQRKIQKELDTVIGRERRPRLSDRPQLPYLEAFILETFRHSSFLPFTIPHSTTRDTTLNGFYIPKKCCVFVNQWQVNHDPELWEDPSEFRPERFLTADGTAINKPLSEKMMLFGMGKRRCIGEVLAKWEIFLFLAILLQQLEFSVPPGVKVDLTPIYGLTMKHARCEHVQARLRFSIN

[4] = system: CYP3A4&5; assay: CYP inhibition in human liver microsomes, CYP3A4&5 testosterone; assay type: in vitro ADME; conditions: probe testosterone, substrate testosterone, read-out: CYP3A4&5 testosterone Inh %
[5] = biological target: T4, CYP3A4 (Homo sapiens, UniProt P08684); assay: CYP inhibition in human liver microsomes, CYP3A4 midazolam; assay type: in vitro ADME; design: incubated with human liver microsomes; from tissue; host or cells: human liver microsomes; conditions: probe midazolam, substrate midazolam, read-out: CYP3A4 midazolam Inh %
T4 sequence (P08684 whole entry): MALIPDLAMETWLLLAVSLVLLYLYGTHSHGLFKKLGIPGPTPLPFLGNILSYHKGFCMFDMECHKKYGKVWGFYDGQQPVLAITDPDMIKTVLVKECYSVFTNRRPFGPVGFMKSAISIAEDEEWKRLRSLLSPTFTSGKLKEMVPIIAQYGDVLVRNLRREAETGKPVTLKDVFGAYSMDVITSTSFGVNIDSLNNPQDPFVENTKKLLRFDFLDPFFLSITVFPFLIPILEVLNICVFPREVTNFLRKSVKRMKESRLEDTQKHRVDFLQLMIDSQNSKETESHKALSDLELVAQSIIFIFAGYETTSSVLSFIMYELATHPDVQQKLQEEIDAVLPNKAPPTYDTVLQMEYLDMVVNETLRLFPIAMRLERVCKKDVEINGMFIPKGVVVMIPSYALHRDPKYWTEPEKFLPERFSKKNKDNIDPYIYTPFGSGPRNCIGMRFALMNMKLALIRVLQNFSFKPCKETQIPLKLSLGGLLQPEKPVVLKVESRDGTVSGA

[6] = biological target: T5, CYP2B6 (Homo sapiens, UniProt P20813); assay: CYP inhibition in human liver microsomes, CYP2B6; assay type: in vitro ADME; conditions: probe bupropion, substrate bupropion, read-out: CYP2B6 Inh %
T5 construct: incubated with human liver microsomes; from tissue; host or cells: human liver microsomes
T5 sequence (P20813 1-491): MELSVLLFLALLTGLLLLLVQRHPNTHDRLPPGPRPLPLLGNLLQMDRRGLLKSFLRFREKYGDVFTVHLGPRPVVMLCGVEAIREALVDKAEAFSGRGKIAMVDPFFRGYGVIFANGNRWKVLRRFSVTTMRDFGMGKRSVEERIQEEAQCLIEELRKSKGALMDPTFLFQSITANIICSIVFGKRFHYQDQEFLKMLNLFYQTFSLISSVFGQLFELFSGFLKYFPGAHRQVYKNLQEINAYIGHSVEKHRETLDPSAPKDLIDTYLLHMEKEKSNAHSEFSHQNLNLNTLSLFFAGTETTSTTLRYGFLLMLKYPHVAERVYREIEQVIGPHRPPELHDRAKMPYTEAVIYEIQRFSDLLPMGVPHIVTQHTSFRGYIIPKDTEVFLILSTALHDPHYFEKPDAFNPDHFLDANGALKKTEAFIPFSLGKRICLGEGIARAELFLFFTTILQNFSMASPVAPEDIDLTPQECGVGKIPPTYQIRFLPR

[7] = biological target: T6, CYP2C8 (Homo sapiens, UniProt P10632); assay: CYP inhibition in human liver microsomes, CYP2C8; assay type: in vitro ADME; conditions: probe paclitaxel and amodiaquine, substrates paclitaxel and amodiaquine, read-out: CYP2C8 Inh %
T6 construct: incubated with human liver microsomes; from tissue; host or cells: human liver microsomes
T6 sequence (P10632 1-490): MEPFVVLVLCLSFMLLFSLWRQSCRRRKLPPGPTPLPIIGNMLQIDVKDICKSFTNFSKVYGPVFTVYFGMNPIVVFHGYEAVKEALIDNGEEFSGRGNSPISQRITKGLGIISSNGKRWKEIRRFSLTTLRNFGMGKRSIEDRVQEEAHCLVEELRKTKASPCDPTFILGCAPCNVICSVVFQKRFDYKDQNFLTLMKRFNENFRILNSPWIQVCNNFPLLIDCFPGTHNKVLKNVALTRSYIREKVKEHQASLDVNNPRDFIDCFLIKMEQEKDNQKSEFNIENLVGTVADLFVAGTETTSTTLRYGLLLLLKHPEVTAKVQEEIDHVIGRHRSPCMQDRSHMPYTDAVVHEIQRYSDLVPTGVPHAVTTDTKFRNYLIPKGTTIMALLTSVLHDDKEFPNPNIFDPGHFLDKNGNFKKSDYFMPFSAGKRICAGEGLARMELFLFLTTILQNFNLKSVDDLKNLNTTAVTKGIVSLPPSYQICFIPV

[8] = Metabolic stability in pooled human liver microsomes; assay type: in vitro ADME; conditions: human liver microsomes 0.5 mg/mL, 1 μM compound, 37° C.
[9] = biological target: T7, CYP2C19 (Homo sapiens, UniProt P33261); assay: CYP inhibition in human liver microsomes, CYP2C19; assay type: in vitro ADME; conditions: probe omeprazole, substrate omeprazole, read-out: CYP2C19 Inh %
T7 construct: incubated with human liver microsomes; from tissue; host or cells: human liver microsomes
T7 sequence (P33261 whole entry): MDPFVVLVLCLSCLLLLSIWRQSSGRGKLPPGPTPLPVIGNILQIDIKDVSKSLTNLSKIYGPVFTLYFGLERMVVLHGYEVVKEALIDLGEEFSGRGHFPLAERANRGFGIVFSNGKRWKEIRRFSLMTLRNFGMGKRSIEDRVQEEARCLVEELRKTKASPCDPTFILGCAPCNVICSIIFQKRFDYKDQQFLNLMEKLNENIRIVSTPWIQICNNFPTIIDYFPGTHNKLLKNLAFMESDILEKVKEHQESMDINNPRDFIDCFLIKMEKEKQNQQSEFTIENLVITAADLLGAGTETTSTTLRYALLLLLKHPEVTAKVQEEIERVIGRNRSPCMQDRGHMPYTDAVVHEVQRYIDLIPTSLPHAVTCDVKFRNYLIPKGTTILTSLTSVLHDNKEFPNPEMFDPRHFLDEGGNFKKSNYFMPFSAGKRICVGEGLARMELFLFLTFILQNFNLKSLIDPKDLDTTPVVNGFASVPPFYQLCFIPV

[10] = biological target: T8, CYP2D6 (Homo sapiens, UniProt P10635); assay: CYP inhibition in human liver microsomes, CYP2D6; assay type: in vitro ADME; conditions: probe dextromethorphan, substrate dextromethorphan, read-out: CYP2D6 Inh %
T8 construct: incubated with human liver microsomes; from tissue; host or cells: human liver microsomes
T8 sequence (P10635 whole entry): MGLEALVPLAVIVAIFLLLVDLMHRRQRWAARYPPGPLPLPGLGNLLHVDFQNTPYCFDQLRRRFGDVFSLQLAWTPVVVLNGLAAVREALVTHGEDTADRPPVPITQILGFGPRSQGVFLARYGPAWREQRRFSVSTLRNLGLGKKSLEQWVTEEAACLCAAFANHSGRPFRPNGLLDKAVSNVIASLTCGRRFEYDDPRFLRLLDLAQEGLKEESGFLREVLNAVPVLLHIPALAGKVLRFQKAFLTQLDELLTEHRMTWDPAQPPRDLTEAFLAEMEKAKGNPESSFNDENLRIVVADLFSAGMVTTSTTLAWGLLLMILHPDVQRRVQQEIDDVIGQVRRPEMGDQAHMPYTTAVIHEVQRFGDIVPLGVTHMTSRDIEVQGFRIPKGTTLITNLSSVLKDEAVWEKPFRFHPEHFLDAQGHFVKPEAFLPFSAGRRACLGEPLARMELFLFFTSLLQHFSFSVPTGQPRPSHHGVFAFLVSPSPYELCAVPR

[11] = biological target: T9, CYP2C9 (Homo sapiens, UniProt P11712); assay: CYP inhibition in human liver microsomes, CYP2C9; assay type: in vitro ADME; design: incubated with human liver microsomes; from tissue; host or cells: human liver microsomes; conditions: probe diclofenac, substrate diclofenac, read-out: CYP2C9 Inh %
T9 sequence (P11712 whole entry): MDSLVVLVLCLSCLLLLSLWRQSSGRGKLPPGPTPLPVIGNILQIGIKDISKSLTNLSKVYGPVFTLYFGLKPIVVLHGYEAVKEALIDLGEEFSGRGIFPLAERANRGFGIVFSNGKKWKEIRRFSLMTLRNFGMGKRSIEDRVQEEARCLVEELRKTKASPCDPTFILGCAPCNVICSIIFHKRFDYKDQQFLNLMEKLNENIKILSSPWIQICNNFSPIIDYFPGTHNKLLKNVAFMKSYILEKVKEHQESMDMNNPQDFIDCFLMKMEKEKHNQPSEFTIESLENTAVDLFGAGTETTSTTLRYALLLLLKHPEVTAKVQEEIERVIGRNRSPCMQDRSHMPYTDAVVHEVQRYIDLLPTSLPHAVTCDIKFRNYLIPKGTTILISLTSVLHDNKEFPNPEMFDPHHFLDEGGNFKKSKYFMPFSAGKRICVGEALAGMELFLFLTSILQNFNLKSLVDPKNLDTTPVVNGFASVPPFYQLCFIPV

[12] = biological target: T4, CYP3A4; assay: CYP inhibition of C21 found during development; assay type: in vitro ADME
[13] = biological target: T9, CYP2C9; assay: CYP inhibition of C21 found during development; assay type: in vitro ADME
[14] = Metabolic hydrolysis of C21 found during development; assay type: in vitro ADME
[15] = with 1 mM NADPH, read-out: T1/2, + NaDPH
[16] = without NADPH, read-out: T1/2, no NaDPH

Row | Structure (SMILES) | IC50 [1] | IC50 [2] | Ki [2] | half-life at 1 μM [8, 15] | half-life at 1 μM [8, 16] | further results
1 | CC(C)Cc1nc(-c2ccc(Cn3ccnc3C(C)(C)C)cc2)c(S(=O)(=O)NC(=O)NCc2cccs2)s1 [Example 1, 4-(4-((2-(tert-Butyl)-1H-imidazol-1-yl)methyl)phenyl)-2-isobutyl-N-((thiophen-2-ylmethyl)carbamoyl)thiazole-5-sulfonamide] | 1350 nM | 13 nM | 6.5 nM |  |  | 
2 | CC(C)Cc1ccc(S(=O)(=O)NC(=O)NCc2ccccn2)c(-c2ccc(Cn3ccnc3C(C)(C)C)cc2)c1 [Example 2, 4′-((2-(tert-Butyl)-1H-imidazol-1-yl)methyl)-5-isobutyl-N-((pyridin-2-ylmethyl)carbamoyl)-[1,1′-biphenyl]-2-sulfonamide] | 4600 nM | 0.43 nM | 0.22 nM |  |  | 
3 | CCCCOC(=O)NS(=O)(=O)c1ccc(CC(C)C)cc1-c1ccc(Cn2ccnc2C(C)(C)C)c(F)c1 [Example 4, Butyl ((4′-((2-(tert-butyl)-1H-imidazol-1-yl)methyl)-3′-fluoro-5-isobutyl-[1,1′-biphenyl]-2-yl)sulfonyl)carbamate] | 1200 nM | 0.49 nM | 0.25 nM | 2 min | 4 min | inhibition at 10 µM [3]: -35.8%; inhibition at 10 µM [4]: 23.5%; inhibition at 10 µM [5]: 18.1%; inhibition at 10 µM [6]: 62.4%; inhibition at 10 µM [7]: 87.5%; inhibition at 10 µM [9]: 60.4%; inhibition at 10 µM [10]: 26.5%; inhibition at 10 µM [11]: 92.8%
4 | CC(C)Cc1ccc(S(=O)(=O)NC(=O)OCCO)c(-c2ccc(Cn3ccnc3C(C)(C)C)c(F)c2)c1 [Example 17, 2-Hydroxyethyl (4′-((2-(tert-butyl)-1H-imidazol-1-yl)methyl)-3′-fluoro-5-isobutyl-[1,1′-biphenyl]-2-yl)sulfonylcarbamate] |  | 0.274 nM | 0.14 nM | > 60 min | > 60 min | 
5 | COC(=O)NS(=O)(=O)c1ccc(CC(C)C)cc1-c1ccc(Cn2ccnc2C)cc1 [Example 18, Methyl (5-isobutyl-4′-((2-methyl-1H-imidazol-1-yl)methyl)-[1,1′-biphenyl]-2-yl)sulfonylcarbamate] |  | 1.78 nM | 0.93 nM | > 60 min | > 60 min | 
6 | CCCCOC(=O)NS(=O)(=O)c1sc(CC(C)C)cc1-c1ccc(Cn2ccnc2)cc1 [Example C21, N-butyloxycarbonyl-3-(4-imidazol-1-ylmethylphenyl)-5-isobutylthiophene-2-sulfon-amide] |  |  |  |  |  | inhibition of CYP 3A4 [12]: potent inhibitor; inhibition of CYP 2C9 [13]: potent inhibitor; metabolic hydrolysis [14]: rapidly hydrolysed to an inactive sulfonamide metabolite
